Assay [1] has as its target T1, PNPO (pyridoxine-5'-phosphate oxidase) (Homo sapiens, UniProt Q9NVS9).
T1 construct: PNPO WT, 6×His tag (pet-28a)
T1 sequence (Q9NVS9 1-261): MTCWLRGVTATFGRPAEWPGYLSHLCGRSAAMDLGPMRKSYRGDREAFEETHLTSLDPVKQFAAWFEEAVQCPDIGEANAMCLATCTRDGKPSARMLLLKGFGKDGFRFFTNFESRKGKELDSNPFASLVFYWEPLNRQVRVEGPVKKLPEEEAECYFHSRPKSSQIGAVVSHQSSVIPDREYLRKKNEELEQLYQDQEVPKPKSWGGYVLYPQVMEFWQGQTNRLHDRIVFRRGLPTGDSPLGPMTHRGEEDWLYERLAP
Kind of assay: microscale thermophoresis (MST); also HuProt […] proteome microarray with FITC-labelled celastrol. Type of assay: binding. For orientation: Microscale thermophoresis detects binding through changes in fluorescence in a small temperature gradient.

Assay [2] deals with T1, PNPO (pyridoxine-5'-phosphate oxidase). Description: microscale thermophoresis (MST) with RED-NHS-labelled purified protein. Type of assay: binding.

On to `CC1=C(O)C(=O)C=C2C1=CC=C1[C@@]2(C)CC[C@@]2(C)[C@@H]3C[C@](C)(C(=O)O)CC[C@]3(C)CC[C@]12C` [celastrol], for which, in assay [1], the “microscale thermophoresis (MST); also HuProt 20K proteome microarray with FITC-l” value was “MST analysis confirmed a direct interaction between celastrol and PNPO”.

One may read the Kd as the constant that tells how readily two partners part at equilibrium. Lower therefore signals a tighter complex. Turning to `CC1=NN(c2ccc(C)c(C)c2)C(=O)/C1=N\Nc1cccc(-c2cccc(C(=O)O)c2)c1O` [Eltrombopag], in assay [2], the Kd was found to be 0.18 ± 0.09 µM.

These data come from paper PMC11792023, “PNPO‐Mediated Oxidation of DVL3 Promotes Multiple Myeloma Malignancy and Osteoclastogenesis by Activating the Wnt/β‐Catenin Pathway” (Advanced Science, 2024).
